How the values were obtained:
[1] = system: LPS aggregates (Re-LPS from E. coli F515, S-form LPS from Salmonella enterica sv. Minnesota 188233); experiment: LPS disaggregation, automated native PAGE assay; conditions: LPS 0.275 μg/μl, hemoglobin 0.375 μg/μl, 37° C., 30 min
From the text: Concerning the molecular mechanism of the enhancement of LPS bioactivities by adult mammalian hemoglobin (HbA) preparations, a profound dispersion of the physiologically predominating large LPS aggregates (MW≧10^6 Da) by HbA has been described [Roth, R. J., 1994; Kaca, W., 1994; Roth R. J., 1999]. For analysis of potential analogous effects of highly purified fetal ovine hemoglobin (s-HbF) an automated native PAGE assay was established employing the PhastSystem™ apparatus (Amersham Pharmacia Biotech). Briefly, Re-LPS purified from E. coli F515 or S-form LPS from Salmonella enterica sv. Minnesota 188233 at a final concentration of 0.275 μg/μl was incubated in the presence or absence of the analyzed hemoglobin preparations (0.375 μg/μl) at 37° C. for 30 min. […] The denatured samples were finally analyzed by SDS-PAGE in PhastGel™ Homogeneous-20 gels equipped with PhastGel™ SDS buffer strips (Amersham Pharmacia Biotech) according to the standard protocol of the manufacturer and subsequent silver staining. In comparison to ovine HbF preparations of human HbA (SIGMA-Aldrich), adult ovine hemoglobin (s-HbA) and heme-free fetal ovine hemoglobin (s-HbF/hf) were analysed for LPS disaggregation activities in the native Phast™ PAGE assay.

mouse spleen cells = experiment: Cytokine production by mouse spleen cells with LPS and Hb; format: cell-based, C57BL/6 mice; conditions: murine spleen cells, LPS 200 ng/ml
Experimental: (§1) Spleen cells were pooled from 3 C57BL/6 donors (8-week male). Cells were incubated in triplicate in 2 ml medium (with 10% fetal calf serum and 200 ng/ml LPS) at a concentration of 1×10^6/ml. Medium contained in addition adult or fetal (sheep) hemoglobin at the various concentrations shown. Supernatants were harvested 24 hrs later to assay in triplicate for TNFα by ELISA. […] Control cultures (no LPS, LPS only, or fetal/adult Hb only) produced levels <50 ng/ml, <70 ng/ml or <50 ng/ml respectively.
as §1, with “assay for IL-6” for “assay”, “triplicate” for “triplicate for TNFα”, “<100” for “<50”, “<120” for “<70”
In this experiment the cloned γ- and β-chain of sheep Hb were assayed as CHO extracts (20 μg/ml) together with LPS (100 ng/ml) to stimulate murine spleen cells in vitro for the production of TNFα (detection at 24 hr by ELISA) […]

human PBL = experiment: TNFα production by human PBL with LPS and Hb; format: cell-based; conditions: LPS 200 ng/ml
Experimental: PBL were obtained by Ficoll-hypaque purification from volunteers. Cells were incubated in triplicate in 2 ml medium (with 10% commercial human AB serum and 200 ng/ml LPS) at a concentration of 1×10^6/ml. Medium contained in addition adult or fetal (sheep) hemoglobin at the various concentrations shown. Supernatants were harvested 24 hrs later to assay in triplicate for TNFα by ELISA. […] Control cultures (no LPS, LPS only, or fetal/adult Hb only) produced levels <50 ng/ml, <100 ng/ml or <65 ng/ml respectively.
PBL were obtained by Ficoll-hypaque purification from volunteers. Cells were incubated in 2 ml medium (with 10% commercial human AB serum). Cells were incubated in the presence/absence of 500 ng/ml adult or fetal sheep hemoglobin α- or γ-chain. Control cells were incubated in the absence of hemoglobin protein (far left of Figure). In addition, each group was further subdivided into triplicates which received no additional materials (open bars), or 200 ng/ml LPS (closed bars). Supernatants were harvested 24 hrs later to assay (in triplicate) for TNFα by ELISA. Data in panels A and B are independent studies using different volunteer donors (mean ±SD). […]

[2] = system: S-form LPS, Re-LPS, Lipid A; experiment: LPS/Lipid A-specific adsorption assay; format: binding
Experimental: In order to identify the LPS or Lipid A-interacting protein(s) in CLP1b a LPS/Lipid A-specific adsorption assay was developed. In this screening system polyvinylchloride 96-well microtiter plates (Becton Dickinson) were coated for 14 h at 4° C. with S-form LPS from Salmonella enterica sv. Minnesota 188233, Re-LPS from E. coli F515 or a Lipid A preparation derived from the E. coli strain solubilized as triethylamine (TEA) salts in LAL reagent water (BioWhittaker) at concentrations of 5 μg/ml or 2 μg/ml, respectively. As a control a series of wells was similarly treated with LAL reagent water without the addition of LPS or Lipid A. Subsequently, the solutions were decanted and the wells were rinsed four times with Dulbeccos phosphate-buffered saline (D-PBS; Lifetechnologies) without magnesium or calcium salts. […] In addition, the lyophilized samples from the prior CLP1b incubation and the following sequence of washing steps were resuspended in 50 μl SDS-Sample buffer and the compositions of the collected samples from the adsorption assay were analyzed by SDS-PAGE in 15% (w/v) polyacrylamide gels and silver staining according to the method described by Heukeshoven [Heukeshoven, J., 1986].

[3] = Bioenhancing effect on LPS (data not shown)
adherent spleen cells = experiment: Co-stimulation of adherent spleen cells (macrophages) with LPS/CLP2p and recombinant cytokines, cytokine ELISA; format: cell-based, DBA/2 mice; conditions: 18 h; LPS 1 μg/ml, CLP2p 0.3 μg/ml, rIL-12/rIL-13 0.1 μg/ml, anti-IL-12 10 μg/ml
Experimental: LPS, as well as many defined cytokines, including IL-1, IL-6, IL-10, IL-12, IL-13 and IFNγ, stimulate macrophages to produce other cytokines in vitro and in vivo. […] In addition, cells were treated with CLP2p, or with cytokines, in the presence of monoclonal antibodies to cytokines. Cytokine production was measured by ELISA (all reagents purchased by Pharmingen, San Diego, USA).
IL-12 is a primary physiological stimulus for cytokine production by macrophages during inflammation [Wang, J., 1999], and LPS may mediate its stimulatory effects by inducing IL-12 production. Similarly, IL-13 may be a physiologic counter-regulator of stimulation by IL-12 [Machado, F., 1998]. […] In some cultures a monoclonal antibody to IL-12 was included. (Recombinant cytokines were obtained according to conventional protocols.) Data pooled from 3 such studies are shown in Table 1.

[4] = target: CD14 on spleen adherent cells of DBA/2 mice (mouse (cells from DBA/2 mice)) (UniProt P10810); experiment: cell-based or functional assay
Sequence of UniProt P10810 (P10810 16-336): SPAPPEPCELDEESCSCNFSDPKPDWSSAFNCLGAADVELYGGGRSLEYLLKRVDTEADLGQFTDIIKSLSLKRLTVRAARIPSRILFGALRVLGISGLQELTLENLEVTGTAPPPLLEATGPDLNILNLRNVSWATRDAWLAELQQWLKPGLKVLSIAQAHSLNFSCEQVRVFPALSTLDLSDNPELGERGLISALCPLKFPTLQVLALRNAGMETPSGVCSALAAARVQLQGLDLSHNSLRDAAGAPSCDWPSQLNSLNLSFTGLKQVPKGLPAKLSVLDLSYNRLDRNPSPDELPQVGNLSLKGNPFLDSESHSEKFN

## fetal Hb: purified fetal sheep hemoglobin, α and γ chains (α2γ2)
[1]
  LPS disaggregation activity: stronger LPS disaggregation activities
Mouse spleen cells
  synergy with LPS in the production of TNFα or IL-6: clear evidence for a synergy
Human PBL
  synergy with LPS for the production of TNFα: striking synergy
[2]
  LPS/Lipid A interaction in CLP1b: major LPS/Lipid A-interacting component

## myoglobin
[3]
  bioenhancing effect: not observed

## rIL-13: recombinant cytokine IL-13 [reference compound]
Adherent spleen cells
  IL-1 level in culture supernatant: 15 ng/mL
  IL-6 level in culture supernatant: 1040 pg/mL
  TNFα level in culture supernatant: 40 ng/mL

## commercial anti-CD14 monoclonal antibody (UCHM-1, Sigma)
[4]
  Inhibition % of TNF-α production by spleen adherent cells; stimulus CLP2p (0.3 µg/ml), anti-CD14 2.5 µg/ml: 46%
  Inhibition % of TNF-α production by spleen adherent cells; stimulus CLP2p (0.3 µg/ml), anti-CD14 10 µg/ml: 80%
  Inhibition % of TNF-α production by spleen adherent cells; stimulus LPS (1 µg/ml), anti-CD14 2.5 µg/ml: 58%
  Inhibition % of TNF-α production by spleen adherent cells; stimulus LPS (1 µg/ml), anti-CD14 10 µg/ml: 81%

B1: rIL-12: recombinant cytokine IL-12 (protein, UniProt P29459 23-219; P29460 23-328, looked up)
Interleukin-12 subunit alpha: RNLPVATPDPGMFPCLHHSQNLLRAVSNMLQKARQTLEFYPCTSEEIDHEDITKDKTSTVEACLPLELTKNESCLNSRETSFITNGSCLASRKTSFMMALCLSSIYEDLKMYQVEFKTMNAKLLMDPKRQIFLDQNMLAVIDELMQALNFNSETVPQKSSLEEPDFYKTKIKLCILLHAFRIRAVTIDRVMSYLNAS
Interleukin-12 subunit beta: IWELKKDVYVVELDWYPDAPGEMVVLTCDTPEEDGITWTLDQSSEVLGSGKTLTIQVKEFGDAGQYTCHKGGEVLSHSLLLLHKKEDGIWSTDILKDQKEPKNKTFLRCEAKNYSGRFTCWWLTTISTDLTFSVKSSRGSSDPQGVTCGAATLSAERVRGDNKEYEYSVECQEDSACPAAEESLPIEVMVDAVHKLKYENYTSSFFIRDIIKPDPPKNLQLKPLKNSRQVEVSWEYPDTWSTPHSYFSLTFCVQVQGKSKREKKDRVFTDKTSATVICRKNASISVRAQDRYYSSSWSEWASVPCS
Adherent spleen cells
  IL-1 level in culture supernatant: 235 ng/mL
  IL-6 level in culture supernatant: 359 pg/mL
  TNFα level in culture supernatant: 149 ng/mL
